According to PMC5513037, “Examining the influence of specificity ligands and ATP-competitive ligands on the overall effectiveness of bivalent kinase inhibitors” (Proteome Science, 2017):
pIC50: −log10 of the molar value.

How the values were obtained:
NEK1 = target: T1, NEK1 (Homo sapiens, UniProt Q96PY6); assay: KAM-matrix competition in K562 lysate; assay type: binding
T1 construct: endogenous in cells; host or cells: K562
T1 sequence (Q96PY6 1-1258): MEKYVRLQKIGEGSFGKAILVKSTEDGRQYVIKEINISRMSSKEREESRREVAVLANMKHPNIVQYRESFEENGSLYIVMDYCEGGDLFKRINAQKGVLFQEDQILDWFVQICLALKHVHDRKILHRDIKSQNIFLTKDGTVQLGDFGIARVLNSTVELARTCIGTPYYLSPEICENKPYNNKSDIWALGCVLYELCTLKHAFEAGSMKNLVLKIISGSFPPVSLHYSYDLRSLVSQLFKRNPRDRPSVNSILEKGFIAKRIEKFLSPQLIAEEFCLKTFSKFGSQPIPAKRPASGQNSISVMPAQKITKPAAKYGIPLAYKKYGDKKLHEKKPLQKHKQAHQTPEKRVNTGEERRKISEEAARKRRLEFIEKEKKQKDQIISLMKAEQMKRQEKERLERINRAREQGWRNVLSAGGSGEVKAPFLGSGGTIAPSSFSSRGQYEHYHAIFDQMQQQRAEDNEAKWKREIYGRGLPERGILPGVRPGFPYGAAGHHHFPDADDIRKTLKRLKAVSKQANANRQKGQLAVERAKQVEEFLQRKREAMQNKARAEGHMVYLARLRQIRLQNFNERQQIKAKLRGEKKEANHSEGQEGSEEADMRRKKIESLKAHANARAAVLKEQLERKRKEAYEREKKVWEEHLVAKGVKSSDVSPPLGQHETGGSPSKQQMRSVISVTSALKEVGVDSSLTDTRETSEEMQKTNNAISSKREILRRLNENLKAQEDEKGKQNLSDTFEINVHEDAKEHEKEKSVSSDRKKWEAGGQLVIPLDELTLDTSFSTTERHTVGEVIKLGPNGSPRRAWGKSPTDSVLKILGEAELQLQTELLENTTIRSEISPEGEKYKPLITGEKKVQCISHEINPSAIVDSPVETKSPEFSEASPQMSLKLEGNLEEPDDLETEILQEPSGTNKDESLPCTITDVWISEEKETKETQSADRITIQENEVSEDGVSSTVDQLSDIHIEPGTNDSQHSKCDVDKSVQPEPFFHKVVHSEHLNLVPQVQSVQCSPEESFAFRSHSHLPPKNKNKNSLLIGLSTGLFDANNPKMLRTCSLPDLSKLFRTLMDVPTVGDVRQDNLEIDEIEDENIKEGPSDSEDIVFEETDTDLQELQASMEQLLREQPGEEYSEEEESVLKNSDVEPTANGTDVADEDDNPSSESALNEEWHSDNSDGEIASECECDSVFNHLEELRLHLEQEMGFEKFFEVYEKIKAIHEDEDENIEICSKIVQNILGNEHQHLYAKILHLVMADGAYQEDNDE
Procedure: (§1) Supplement 12953_2017_125_MOESM1_ESM.zip/MS_Supp Info.xlsx, sheet "KAM" | column: 10 uM KAM; 1 uM KAM; 0.1 uM KAM; 0.01 uM KAM; 0.001 uM KAM; RB50

PKMYT1 = target: T2, PKMYT1 (Homo sapiens, UniProt Q99640); assay: KAM-matrix competition in K562 lysate; assay type: binding;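 on 0.001 uM KAM: median log10 fold change of treatment over DMSO control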;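 on 0.01 uM KAM: median log10 fold change of treatment over DMSO control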;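 on 0.1 uM KAM: median log10 fold change of treatment over DMSO control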;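 on 1 uM KAM: median log10 fold change of treatment over DMSO control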;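 on 10 uM KAM: median log10 fold change of treatment over DMSO control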
T2 construct: endogenous in cells; host or cells: K562
T2 sequence (Q99640 1-499): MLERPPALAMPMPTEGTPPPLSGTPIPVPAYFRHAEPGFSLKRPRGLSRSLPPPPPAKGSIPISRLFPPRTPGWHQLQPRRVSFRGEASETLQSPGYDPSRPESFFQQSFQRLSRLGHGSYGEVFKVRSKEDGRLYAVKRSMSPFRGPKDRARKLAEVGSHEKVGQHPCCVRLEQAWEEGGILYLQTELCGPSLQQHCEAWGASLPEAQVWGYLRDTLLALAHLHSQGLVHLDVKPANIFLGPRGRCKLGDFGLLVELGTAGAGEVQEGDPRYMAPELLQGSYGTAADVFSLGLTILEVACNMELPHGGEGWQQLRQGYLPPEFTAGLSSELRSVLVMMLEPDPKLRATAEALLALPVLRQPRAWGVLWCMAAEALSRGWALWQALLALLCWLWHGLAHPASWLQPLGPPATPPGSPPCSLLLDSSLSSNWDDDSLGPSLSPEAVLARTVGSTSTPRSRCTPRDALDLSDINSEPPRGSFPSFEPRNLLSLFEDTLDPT
Procedure: as §1

N#CCc1ccc(Nc2nc(NCCCN)cc(Nc3cc(C4CC4)[nH]n3)n2)cc1 [KAM]
median Log10 fold change (NEK1; 0.001 uM KAM): -0.02178
median Log10 fold change (NEK1; 0.01 uM KAM): -0.02485
median Log10 fold change (NEK1; 0.1 uM KAM): -0.1728
median Log10 fold change (NEK1; 1 uM KAM): -0.239
median Log10 fold change (NEK1; 10 uM KAM): -0.318
pIC50 (NEK1; read-out: RB50 (the source's name)): 5.47
pIC50 (PKMYT1; KAM 0.001-10 uM, read-out: RB50 (the source's name)): < 5.00
0.001 uM KAM (PKMYT1; relative to 0 uM KAM = 0): -0.05315
0.01 uM KAM (PKMYT1; relative to 0 uM KAM = 0): -0.03451
0.1 uM KAM (PKMYT1; relative to 0 uM KAM = 0): -0.2607
1 uM KAM (PKMYT1; relative to 0 uM KAM = 0): -0.4249
10 uM KAM (PKMYT1; relative to 0 uM KAM = 0): -0.2726
